Assay results from patent US11440904B2, “Substituted pyrimidines, pharmaceutical compositions and therapeutic methods thereof” (priority 2017, dated 2022).

What was measured:
[1] = system: MDA-MB-231 cells; experiment: Cancer cell growth inhibition, MDA-MB-231; format: cell-based; conditions: Homo sapiens, 72 hr, cell viability
Description: (§1) In order to test certain compounds of Compounds 1 to 24 for cancer cell growth inhibition, a leukemia cancer cell line EOL-1, and triple negative breast cancer cell line MDA-MB-231 was used.
(§2) EOL-1 and MDA-MB-231 cells were cultured in a RPMI-1640 cell culture medium supplemented with 10% fetal bovine serum (FBS) and 1% penicillin/streptomycin (Gibco BRL).
(§3) The cancer cell lines stored in a liquid nitrogen tank were each quickly thawed at 37° C. water bath, and centrifuged to remove the DMSO in the freezing medium. The resulting cell pellet was mixed with a culture medium, incubated in a culture flask at 37° C. under 5% CO2 for 2 to 3 days. The EOL-1 cells were sub-cultured by 1:5˜10 dilution in fresh culture medium. For MD-MB-231 cells, the culture medium was removed and the remaining cells were washed with PBS (Phosphate Buffered Saline) and trypsinized by trypsin-EDTA. The detached cells were sub-cultured by 1:5˜10 dilution in fresh culture medium.
(§4) For the cell growth inhibition assay, the cells were seeded in 96-well cell culture plates at 5×10^4 cells/well for EOL-1 and 5×10^3 cells/well for MDA-MB-231 cells in 50 μL and incubated at 37° C. under 5% CO2 for 3 to 6 hr. before the compounds were added.
(§5) Certain compounds of Compounds 1-24 were dissolved in dimethylsulfoxide (DMSO) to a concentration of 10 mM. The DMSO solution containing test compound was diluted with a culture medium to a final concentration of 600 μM, and then diluted 100 times to 6 μM as top dose followed by 1:3 serial dilutions, and then add 50 μL diluted compounds to the 50 μL cells, with a final top dose at 3 μM and the plate was incubated at 37° C. under 5% CO2 for 72 hr. The cell viability was determined by Cell Meter™ Fluorimetric Cell Cytotoxicity Assay Kit (AAT Bioquest) according to the manufacturer's instructions. Briefly, thaw and warm up the Assay Solution (Component A) to 37° C., and mix it thoroughly. Add 20 μL/well (96-well plate) of Assay Solution (Component A). Mix the reagents by shaking the plate gently for 30 seconds. Incubate the cells in a 37° C., 5% CO2 incubator for 1-24 hr., protected from light. Monitor the fluorescence intensity (bottom read) at Ex/Em=540/590 nm. Alternatively, read the O.D. at 570 nm (the reference wavelength should be 600 nm) to determine the cell viability in each well.

[2] = target: BTK wt (Homo sapiens (Human), UniProt Q06187); experiment: 33P ATP HotSpot kinase assay, BTK wt; format: biochemical; conditions: 10 μM ATP
Chain of BTK wt (Q06187 whole entry): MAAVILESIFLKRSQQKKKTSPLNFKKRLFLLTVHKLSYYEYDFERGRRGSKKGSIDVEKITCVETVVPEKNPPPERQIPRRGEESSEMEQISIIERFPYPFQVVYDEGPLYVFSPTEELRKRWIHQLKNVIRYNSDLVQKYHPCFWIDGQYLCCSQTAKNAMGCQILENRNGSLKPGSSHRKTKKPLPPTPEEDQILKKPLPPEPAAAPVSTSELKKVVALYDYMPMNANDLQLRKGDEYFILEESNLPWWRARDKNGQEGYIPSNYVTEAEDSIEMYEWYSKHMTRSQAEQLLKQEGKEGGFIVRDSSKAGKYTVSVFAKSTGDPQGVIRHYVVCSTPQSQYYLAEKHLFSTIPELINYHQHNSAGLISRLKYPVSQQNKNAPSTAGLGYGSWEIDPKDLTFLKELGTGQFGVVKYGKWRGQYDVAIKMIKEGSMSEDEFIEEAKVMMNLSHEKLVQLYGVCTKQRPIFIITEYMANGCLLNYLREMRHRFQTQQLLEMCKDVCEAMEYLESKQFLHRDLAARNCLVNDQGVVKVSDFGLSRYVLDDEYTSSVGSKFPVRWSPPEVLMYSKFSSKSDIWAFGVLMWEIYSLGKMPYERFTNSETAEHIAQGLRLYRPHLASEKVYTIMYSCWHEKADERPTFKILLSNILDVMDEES
Description: (§6) (See, e.g., Ma, et al, 2008 Expert Opin Drug Discov. 3(6): 607-621.)

[3] = system: EOL-1 cells; experiment: Cancer cell growth inhibition, EOL-1; format: cell-based; conditions: Homo sapiens, EOL1, 72 hr, cell viability
Description: as §1, §2, §3, §4, §5

[4] = target: EGFR wt (Homo sapiens (Human), UniProt P00533); experiment: 33P ATP HotSpot kinase assay, EGFR wt; format: biochemical; conditions: 10 μM ATP
Chain of EGFR wt (P00533 25-1210): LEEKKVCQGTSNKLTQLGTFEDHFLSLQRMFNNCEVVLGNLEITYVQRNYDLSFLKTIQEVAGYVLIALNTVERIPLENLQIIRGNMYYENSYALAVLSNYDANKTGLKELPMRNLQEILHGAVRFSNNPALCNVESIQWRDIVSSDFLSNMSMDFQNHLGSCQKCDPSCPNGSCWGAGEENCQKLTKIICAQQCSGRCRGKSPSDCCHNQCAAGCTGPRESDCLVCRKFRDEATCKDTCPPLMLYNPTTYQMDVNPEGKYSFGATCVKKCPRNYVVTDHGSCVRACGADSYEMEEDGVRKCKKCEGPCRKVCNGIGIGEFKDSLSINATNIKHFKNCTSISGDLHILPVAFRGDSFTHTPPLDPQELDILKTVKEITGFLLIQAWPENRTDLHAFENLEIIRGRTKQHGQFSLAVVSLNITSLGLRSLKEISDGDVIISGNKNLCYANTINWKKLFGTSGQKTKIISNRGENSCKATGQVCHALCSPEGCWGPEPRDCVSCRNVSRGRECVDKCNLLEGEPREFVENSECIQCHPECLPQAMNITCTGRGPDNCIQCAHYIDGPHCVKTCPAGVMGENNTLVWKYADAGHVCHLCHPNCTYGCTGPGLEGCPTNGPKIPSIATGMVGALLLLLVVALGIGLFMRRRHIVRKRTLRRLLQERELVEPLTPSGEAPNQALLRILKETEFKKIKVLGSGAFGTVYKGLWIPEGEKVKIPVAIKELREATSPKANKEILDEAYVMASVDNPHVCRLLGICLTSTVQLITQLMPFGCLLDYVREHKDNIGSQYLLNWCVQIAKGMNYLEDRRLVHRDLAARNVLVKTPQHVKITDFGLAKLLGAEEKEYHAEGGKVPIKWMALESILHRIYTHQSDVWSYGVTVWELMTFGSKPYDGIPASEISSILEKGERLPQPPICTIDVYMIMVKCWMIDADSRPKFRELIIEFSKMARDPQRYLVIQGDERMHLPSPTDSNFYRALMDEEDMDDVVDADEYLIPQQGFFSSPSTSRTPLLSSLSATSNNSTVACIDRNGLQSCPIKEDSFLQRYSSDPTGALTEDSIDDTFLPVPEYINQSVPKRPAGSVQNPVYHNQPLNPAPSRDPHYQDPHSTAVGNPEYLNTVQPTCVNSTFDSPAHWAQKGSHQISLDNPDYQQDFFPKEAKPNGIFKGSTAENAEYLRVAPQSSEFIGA

[5] = target: BTK phosphorylation at tyrosine 223 (Homo sapiens (Human), UniProt Q06187); experiment: Immunoblot analysis of phospho-BTK(Y223) in Ramos cells; format: cell-based; conditions: 1 hr treatment, anti-IgM stimulation, western blot
Chain of BTK phosphorylation at tyrosine 223 (Q06187 whole entry): as the sequence (Q06187 whole entry) above
Description: Ramos cells were cultured in RPMI-1640 medium with 10% fetal bovine serum (FBS) and 1% penicillin/streptomycin (Gibco BRL). Before the assay, Ramos cells were counted and seeded at 1×10^6 cells/mL, cultured overnight in RPMI-1640 medium with 10% FBS, the cells were centrifuged at 950 rpm for 10 min., then 1˜2×10^6 cells were split into each tube in 300 μL medium. The cells were treated with certain compounds of Compound 1-24 at 0˜3 μM for 1 hr. in 37° C., then the cells were stimulated with 10 μg/mL of anti-IgM (BioLegend) for 5 min., followed by 3 min. spin at 2000 rpm. After aspirating the supernatant, 60 μL of RIPA lysis buffer (50 mM Tris-HCl, 1 mM EDTA, 1% NP-40, 0.5% sodium deoxycholate, and 0.1% SDS, pH 7.4, 150 mM NaCl, 1 mM Na3VO4) was added to the cell pellet to lyse the cells on ice for 30 min. After spin at 10,000 rpm for 5 min., 60 μL of the cell lysate was transferred to a fresh tube, and 20 μL of 4× LDS buffer was added to the tube. The samples were boiled on a 100° C. heat block for 10 min. 25 μL lysate was loaded on to SDS-PAGE gel (NuPAGE™ Novex™ 4-12% Bis-Tris Midi Protein Gels, cat. no. WG1402BOX, ThermoFisher) for western blotting analysis per the manufacturer's instructions. Antibodies used for immunoblot analysis include Btk and p-Btk(Y223) (cat. no. 3553 and 5082; Cell Signaling Technology, Beverly, Mass.). p-Btk(Y223) (cat. no. GTX61791; GeneTex, Inc., Irvine, Calif.). Membranes were detected using infrared fluorescence dye (IRDye® 800CW Donkey anti-Rabbit IgG (H+L), cat. no. P/N 925-32213; IRDye® 680RD Donkey anti-Mouse IgG (H+L), cat. no. P/N 925-68072 and scanned on a LiCor Odyssey scanner (LiCor Biosciences, Lincoln, Nebr.).

[6] = target: FAK (Homo sapiens (Human), UniProt Q05397); experiment: 33P ATP HotSpot kinase assay, FAK; conditions: read-out: IC50 FAK, 10 μM ATP
Chain of FAK (Q05397 whole entry): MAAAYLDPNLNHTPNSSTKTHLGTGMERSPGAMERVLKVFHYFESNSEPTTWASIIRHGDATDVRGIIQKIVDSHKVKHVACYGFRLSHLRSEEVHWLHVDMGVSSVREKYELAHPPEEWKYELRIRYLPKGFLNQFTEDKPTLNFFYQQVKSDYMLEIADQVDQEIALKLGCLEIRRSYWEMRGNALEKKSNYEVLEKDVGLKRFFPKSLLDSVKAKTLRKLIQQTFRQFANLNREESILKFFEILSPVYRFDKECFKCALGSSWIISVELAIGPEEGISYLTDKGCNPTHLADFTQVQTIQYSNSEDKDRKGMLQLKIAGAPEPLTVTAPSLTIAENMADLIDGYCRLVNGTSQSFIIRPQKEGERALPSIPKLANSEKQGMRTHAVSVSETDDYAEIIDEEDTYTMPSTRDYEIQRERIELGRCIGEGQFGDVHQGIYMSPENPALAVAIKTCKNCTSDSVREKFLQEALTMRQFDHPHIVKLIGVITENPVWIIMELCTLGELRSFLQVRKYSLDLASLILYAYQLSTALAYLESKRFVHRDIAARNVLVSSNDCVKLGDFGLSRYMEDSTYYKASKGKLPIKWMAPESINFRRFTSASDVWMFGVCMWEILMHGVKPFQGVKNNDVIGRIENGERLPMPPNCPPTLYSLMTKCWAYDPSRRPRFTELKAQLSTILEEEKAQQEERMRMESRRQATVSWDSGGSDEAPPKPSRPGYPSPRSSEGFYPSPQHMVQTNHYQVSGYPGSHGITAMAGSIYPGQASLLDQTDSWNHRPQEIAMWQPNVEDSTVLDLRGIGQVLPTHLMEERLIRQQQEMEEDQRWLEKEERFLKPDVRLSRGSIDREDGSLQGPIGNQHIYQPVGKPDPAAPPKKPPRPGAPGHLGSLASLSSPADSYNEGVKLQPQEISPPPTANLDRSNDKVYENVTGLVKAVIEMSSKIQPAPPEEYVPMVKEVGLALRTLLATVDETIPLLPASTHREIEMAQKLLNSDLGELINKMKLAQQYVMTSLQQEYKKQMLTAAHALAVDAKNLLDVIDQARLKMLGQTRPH

[7] = target: BMX (Homo sapiens (Human), UniProt P51813); experiment: 33P ATP HotSpot kinase assay, BMX; format: biochemical; conditions: 10 μM ATP
Chain of BMX (P51813 whole entry): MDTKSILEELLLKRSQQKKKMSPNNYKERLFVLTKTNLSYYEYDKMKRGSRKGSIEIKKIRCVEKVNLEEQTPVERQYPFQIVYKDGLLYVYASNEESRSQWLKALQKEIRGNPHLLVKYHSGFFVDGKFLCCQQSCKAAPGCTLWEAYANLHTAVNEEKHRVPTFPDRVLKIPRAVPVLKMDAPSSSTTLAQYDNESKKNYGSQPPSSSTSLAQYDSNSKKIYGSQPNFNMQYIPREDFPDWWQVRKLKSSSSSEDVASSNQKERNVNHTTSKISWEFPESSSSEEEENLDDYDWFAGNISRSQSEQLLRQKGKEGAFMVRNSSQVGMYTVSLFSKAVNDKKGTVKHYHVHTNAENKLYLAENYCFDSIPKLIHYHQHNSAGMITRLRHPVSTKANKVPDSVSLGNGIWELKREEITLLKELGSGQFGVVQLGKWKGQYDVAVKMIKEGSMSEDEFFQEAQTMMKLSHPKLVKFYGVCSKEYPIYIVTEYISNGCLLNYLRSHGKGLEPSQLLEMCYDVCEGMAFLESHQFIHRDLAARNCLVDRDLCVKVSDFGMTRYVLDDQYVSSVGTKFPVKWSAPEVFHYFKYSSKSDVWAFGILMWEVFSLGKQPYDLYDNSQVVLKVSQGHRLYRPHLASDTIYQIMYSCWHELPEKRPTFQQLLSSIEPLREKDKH
Description: as §6
(§7) Each of Compound-1 to Compound-24 was measured for its inhibitory activity on TEC family kinases, BMX and ITK. The measurement was carried out in the same process as described above, BMX, ITK enzymes were used.

[8] = target: ITK (Homo sapiens (Human), UniProt Q08881); experiment: 33P ATP HotSpot kinase assay, ITK; format: biochemical; conditions: 10 μM ATP
Chain of ITK (Q08881 whole entry): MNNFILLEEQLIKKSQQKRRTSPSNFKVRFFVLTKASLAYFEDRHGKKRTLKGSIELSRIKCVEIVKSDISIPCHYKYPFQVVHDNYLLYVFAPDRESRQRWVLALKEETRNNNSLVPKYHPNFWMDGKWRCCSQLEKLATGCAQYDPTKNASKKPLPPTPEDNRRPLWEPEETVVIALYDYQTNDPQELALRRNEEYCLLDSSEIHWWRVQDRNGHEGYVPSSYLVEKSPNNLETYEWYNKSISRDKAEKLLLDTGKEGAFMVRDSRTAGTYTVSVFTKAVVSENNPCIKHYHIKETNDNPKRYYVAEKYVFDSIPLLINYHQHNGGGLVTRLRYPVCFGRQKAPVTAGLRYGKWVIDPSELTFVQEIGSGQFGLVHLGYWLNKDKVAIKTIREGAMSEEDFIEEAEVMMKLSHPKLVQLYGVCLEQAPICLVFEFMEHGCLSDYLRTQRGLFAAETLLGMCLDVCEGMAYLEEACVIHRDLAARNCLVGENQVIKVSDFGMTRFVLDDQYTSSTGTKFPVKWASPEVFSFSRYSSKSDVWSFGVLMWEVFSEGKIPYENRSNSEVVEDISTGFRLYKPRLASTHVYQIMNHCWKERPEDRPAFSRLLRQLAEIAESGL
Description: as §6, §7

[9] = target: ERK1 kinase (Homo sapiens (Human), UniProt P27361); experiment: 33P ATP HotSpot kinase assay, ERK1; format: biochemical; conditions: 10 μM ATP
Chain of ERK1 kinase (P27361 whole entry): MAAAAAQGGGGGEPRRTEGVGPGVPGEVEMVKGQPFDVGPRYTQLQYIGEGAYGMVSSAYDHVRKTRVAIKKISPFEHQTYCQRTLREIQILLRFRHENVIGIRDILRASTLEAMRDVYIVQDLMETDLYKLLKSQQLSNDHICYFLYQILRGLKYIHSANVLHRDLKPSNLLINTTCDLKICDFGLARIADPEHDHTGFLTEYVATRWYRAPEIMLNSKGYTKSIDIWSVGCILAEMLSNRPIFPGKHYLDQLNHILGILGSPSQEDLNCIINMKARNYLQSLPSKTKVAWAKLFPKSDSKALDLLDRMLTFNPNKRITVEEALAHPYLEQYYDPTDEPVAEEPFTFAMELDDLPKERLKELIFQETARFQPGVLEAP
Description: as §6
Certain compounds of Compound-1 to Compound-24 were measured for its inhibitory activity on ERK1 kinase. The measurement was carried out in the same process as described above, ERK enzyme was used.

[10] = system: ERK phosphorylation at T202/Y204; experiment: Cell-based ERK1/2 (T202/Y204) phosphorylation ELISA in EOL-1 cells; conditions: 3 hr or 15 hr treatment, read-out: EC50 phospho-ERK1/2 (T202/Y204)
Description: EOL-1 cells were cultured in RPMI-1640 medium with 10% fetal bovine serum (FBS) and 1% penicillin/streptomycin (Gibco BRL). Before the assay, EOL-1 cells were counted and seeded at 1×10^6 cells/well in a 6-well plate, cultured overnight in RPMI-1640 medium with 10% FBS. The cells were treated with certain compounds of Compounds 1-24 at 0˜3 μM for 3 hr. or 15 hr. at 37° C., then the cells were harvested, followed by 5 min. spin at 2000 rpm. After aspirating the supernatant, the cells were washed with cold PBS, span again, then 100 μL of RIPA lysis buffer (50 mM Tris-HCl, 1 mM EDTA, 1% NP-40, 0.5% sodium deoxycholate, and 0.1% SDS, pH 7.4, 150 mM NaCl, 1 mM Na3VO4) was added to the cell pellet to lyse the cells on ice for 30 min. After spin at 12,000 rpm for 5 min., 90 μL of the cell lysate was transferred to a fresh tube.
For an enzyme-linked immunosorbent assay (ELISA) assay, 10 μL of the lysate was used for p-ERK1/2 (T202/Y204) elisa assay. ELISA was done using the ERK 1/2 (pT202/Y204 +Total) ELISA Kit (Abcam, ab176660) according to the manufacturer's instructions. Specifically, add 50 μL of all samples or standards to appropriate wells. Add 50 μL of the Antibody Cocktail to each well. Seal the plate and incubate for 1 hr. at r.t. on a plate shaker set to 400 rpm. Wash each well with 3×350 μL 1× Wash Buffer PT. […] This is an endpoint reading.

[11] = target: FAK phosphorylation at tyrosine 397 (Homo sapiens (Human), UniProt Q05397); experiment: Cell-based FAK(Y397) phosphorylation ELISA in PC3 cells; conditions: 1 hr treatment, read-out: EC50 phospho-FAK(Y397)
Chain of FAK phosphorylation at tyrosine 397 (Q05397 whole entry): as the sequence (Q05397 whole entry) above

IC50 [1] [nM] | IC50 [2] [nM] | IC50 [3] [nM] | IC50 [4] [nM] | EC50 [5] [nM] | IC50 [6] [nM] | IC50 [7] [nM] | IC50 [8] [nM] | IC50 [9] [nM] | EC50 [10] [nM] | EC50 [11] [nM] | SMILES
> 3000 | 73.4 | 2000 | > 1000 | 100 to 1000 | > 1000 | 8.46 | > 1000 |  |  |  | C=CC(=O)N1CCC[C@@H](Nc2nc(Nc3ccc4c(c3)OCCOCCOCCO4)ncc2F)C1 [Compound-2, 1-[(3R)-3-[[5-fluoro-2-(2,5,8,11-tetraoxabicyclo[10.4.0]hexadeca-1(12),13,15-trien-14-ylamino)pyrimidin-4-yl]amino]-1-piperidyl]prop-2-en-1-one]
> 3000 | 3.17 | > 3000 | 345 | < 100 | 1240 | 1.69 | 39.6 |  |  |  | C=CC(=O)N1CCC[C@@H](Nc2nc(Nc3ccc4c(c3)OCCOCCOCCO4)nc3[nH]cnc23)C1 [Compound-3, 1-[(3R)-3-[[2-(2,5,8,11-tetraoxabicyclo[10.4.0]hexadeca-1(12),13,15-trien-14-ylamino)-9H-purin-6-yl]amino]-1-piperidyl]prop-2-en-1-one]
3000 | < 100 | 1900 | > 100 | < 100 | > 100 | < 100 | < 100 |  |  |  | C=CC(=O)Nc1cccc(Nc2nc(Nc3ccc(OCCCOC4(CC)OCC(C)(C)CO4)cc3)ncc2F)c1 [Compound-5, N-[3-[[2-[4-[3-[(2-ethyl-5,5-dimethyl-1,3-dioxan-2yl)oxy]propoxy]anilino]-5-fluoro-pyrimidin-4-yl]amino]phenyl]prop-2-enamide]
> 3000 | 0.65 | 2500 | 208 | < 100 | 274 | 0.41 | 1.35 |  |  |  | C=CC(=O)Nc1cccc(Nc2nc(Nc3ccc4c(c3)OCCOCCOCCO4)nc3[nH]cnc23)c1 [Compound-7, N-[3-[[2-(2,5,8,11-tetraoxabicyclo[10.4.0]hexadeca-1(12),13,15-trien-14-ylamino)-9H-purin-6-yl]amino]phenyl]prop-2-enamide]
 | < 100 |  | > 100 | 100 to 1000 | > 100 | > 100 | > 100 |  |  |  | C=CC(=O)Nc1ccccc1Nc1nc(Nc2ccc3c(c2)OCCOCCOCCO3)ncc1F [Compound-10, N-[2-[[5-fluoro-2-(2,5,8,11-tetraoxabicyclo[10.4.0]hexadeca-1(12),13,15-trien-14-ylamino)pyrimidin-4-yl]amino]phenyl]prop-2-enamide]
> 3000 | 4.36 | 2400 | > 1000 | 100 to 1000 | 24.6 | 2.7 | 447 | 714 | 1000 to 3000 |  | CCC(=O)Nc1ccccc1Nc1nc(Nc2ccc3c(c2)OCCOCCOCCO3)nc2[nH]cnc12 [Compound-12, N-[2-[[2-(2,5,8,11-tetraoxabicyclo[10.4.0]hexadeca-1(12),13,15-trien-14-ylamino)-9H-purin-6-yl]amino]phenyl]propanamide]
2500 | 68.2 | 350 | > 1000 |  | 13.4 |  |  |  |  | 100 to 1000 | CN([C@@H]1CCC[C@H]1Oc1nc(Nc2ccc3c(c2)OCCOCCOCCO3)nc2[nH]ncc12)S(C)(=O)=O [Compound-19, N-methyl-N-[(1R,2R)-2-[[6-(2,5,8,11-tetraoxabicyclo[10.4.0]hexadeca-1(16),12,14-trien-14-ylamino)-1H-pyrazolo[3,4-d]pyrimidin-4-yl]oxy]cyclopentyl]methanesulfonamide]
> 3000 | > 1000 | 2250 | > 1000 |  | 29.4 |  |  |  |  | 100 to 1000 | CN(c1cnccc1CNc1nc(Nc2ccc3c(c2)OCCOCCOCCO3)nc2[nH]ccc12)S(C)(=O)=O [Compound-20, N-methyl-N-[4-[[[2-(2,5,8,11-tetraoxabicyclo[10.4.0]hexadeca-1(16),12,14-trien-14-ylamino)-7H-pyrrolo[2,3-d]pyrimidin-4-yl]amino]methyl]-3-pyridyl]methanesulfonamide]
